Calls of active or inactive are those of the source. The rule behind the calls is not given here.
Experiments:
[1] = Inhibition of starch utilizing system in Bacteroides dorei JRO1 assessed as microbial growth at 100 uM measured at 30 mins interval with 15 secs shaking for up to 48 hrs in presence of pullulan by spectrophotometric analysis relative to untreated control; set-up: scale not given: the % may be the effect or the level left; settings: Phocaeicola dorei
[2] = Inhibition of starch utilization system in Bacteroides dorei JRO3 assessed as bacterial growth at 1 uM after 14 hrs in presence of potato starch by spectrophotometric analysis relative to untreated control; set-up: scale not given: the % may be the effect or the level left; settings: Phocaeicola dorei
[3] = Inhibition of starch utilizing system in Bacteroides dorei JRO4 assessed as microbial growth at 100 uM measured at 30 mins interval with 15 secs shaking for up to 48 hrs in presence of potato starch by spectrophotometric analysis relative to untreated control; set-up: scale not given: the % may be the effect or the level left; settings: Phocaeicola dorei
Phocaeicola dorei [4] = experiment: Effect on growth of Bacteroides dorei JRO2 assessed as microbial growth at 100 uM measured at 30 mins interval with 15 secs shaking for up to 48 hrs in presence of maltose by spectrophotometric analysis relative to untreated control; format: organism-based; settings: in vivo
[5] = Inhibition of starch utilization system in Bacteroides dorei JRO3 assessed as increase in doubling time at 10 uM in presence of pullulan by spectrophotometric analysis; settings: Phocaeicola dorei
Phocaeicola dorei [6] = experiment: Effect on growth of Bacteroides dorei JRO1 assessed as microbial growth at 100 uM measured at 30 mins interval with 15 secs shaking for up to 48 hrs in presence of maltose by spectrophotometric analysis relative to untreated control; format: organism-based; settings: in vivo
[7] = Inhibition of starch utilization system in Bacteroides dorei JRO3 assessed as bacterial growth at 5 uM after 13.5 hrs in presence of pullulan by spectrophotometric analysis relative to untreated control; set-up: scale not given: the % may be the effect or the level left; settings: Phocaeicola dorei
[8] = Inhibition of starch utilization system in Bacteroides dorei JRO3 assessed as bacterial growth at 0.5 uM after 13.5 hrs in presence of pullulan by spectrophotometric analysis relative to untreated control; set-up: scale not given: the % may be the effect or the level left; settings: Phocaeicola dorei
Phocaeicola dorei [9] = experiment: Effect on growth of Bacteroides dorei JRO3 assessed as microbial growth at 100 uM measured at 30 mins interval with 15 secs shaking for up to 48 hrs in presence of maltose by spectrophotometric analysis relative to untreated control; format: organism-based; settings: in vivo
Phocaeicola dorei [10] = experiment: Effect on growth of Bacteroides dorei JRO2 assessed as microbial growth at 100 uM measured at 30 mins interval with 15 secs shaking for up to 48 hrs in presence of glucose by spectrophotometric analysis relative to untreated control; format: organism-based; settings: in vivo
Phocaeicola dorei [11] = experiment: Effect on growth of Bacteroides dorei JRO4 assessed as microbial growth at 100 uM measured at 30 mins interval with 15 secs shaking for up to 48 hrs in presence of maltose by spectrophotometric analysis relative to untreated control; format: organism-based; settings: in vivo
[12] = Inhibition of starch utilization system in Bacteroides dorei JRO3 assessed as increase in lag time at 5 uM up to 48 hrs in presence of pullulan by spectrophotometric analysis; settings: Phocaeicola dorei
[13] = Inhibition of starch utilization system in Bacteroides dorei JRO3 assessed as reduction in bacterial growth at 0.1 uM after 14 hrs in presence of potato starch by spectrophotometric analysis; settings: Phocaeicola dorei
[14] = Inhibition of starch utilizing system in Bacteroides dorei JRO3 assessed as microbial growth at 100 uM measured at 30 mins interval with 15 secs shaking for up to 48 hrs in presence of potato starch by spectrophotometric analysis relative to untreated control; set-up: scale not given: the % may be the effect or the level left; settings: Phocaeicola dorei
[15] = Inhibition of starch utilization system in Bacteroides dorei JRO3 assessed as reduction in bacterial growth at 0.1 uM after 13.5 hrs in presence of pullulan by spectrophotometric analysis; settings: Phocaeicola dorei
[16] = Inhibition of starch utilizing system in Bacteroides dorei JRO4 assessed as microbial growth at 100 uM measured at 30 mins interval with 15 secs shaking for up to 48 hrs in presence of pullulan by spectrophotometric analysis relative to untreated control; set-up: scale not given: the % may be the effect or the level left; settings: Phocaeicola dorei
[17] = Inhibition of starch utilizing system in Bacteroides dorei JRO1 assessed as microbial growth at 100 uM measured at 30 mins interval with 15 secs shaking for up to 48 hrs in presence of potato starch by spectrophotometric analysis relative to untreated control; set-up: scale not given: the % may be the effect or the level left; settings: Phocaeicola dorei
[18] = Inhibition of starch utilization system in Bacteroides dorei JRO3 assessed as bacterial growth at 5 uM after 14 hrs in presence of potato starch by spectrophotometric analysis relative to untreated control; set-up: scale not given: the % may be the effect or the level left; settings: Phocaeicola dorei
Phocaeicola dorei [19] = experiment: Effect on growth of Bacteroides dorei JRO3 assessed as microbial growth at 100 uM measured at 30 mins interval with 15 secs shaking for up to 48 hrs in presence of glucose by spectrophotometric analysis relative to untreated control; format: organism-based; settings: in vivo
[20] = Inhibition of starch utilization system in Bacteroides dorei JRO3 assessed as bacterial growth at 0.5 uM after 14 hrs in presence of potato starch by spectrophotometric analysis relative to untreated control; set-up: scale not given: the % may be the effect or the level left; settings: Phocaeicola dorei
Phocaeicola dorei [21] = experiment: Effect on growth of Bacteroides dorei JRO4 assessed as microbial growth at 100 uM measured at 30 mins interval with 15 secs shaking for up to 48 hrs in presence of glucose by spectrophotometric analysis relative to untreated control; format: organism-based; settings: in vivo
[22] = Inhibition of starch utilizing system in Bacteroides dorei JRO3 assessed as microbial growth at 100 uM measured at 30 mins interval with 15 secs shaking for up to 48 hrs in presence of pullulan by spectrophotometric analysis relative to untreated control; set-up: scale not given: the % may be the effect or the level left; settings: Phocaeicola dorei
[23] = Inhibition of starch utilization system in Bacteroides dorei JRO3 assessed as increase in lag time at 0.1 to 10 uM up to 48 hrs in presence of potato starch by spectrophotometric analysis; settings: Phocaeicola dorei
[24] = Inhibition of starch utilization system in Bacteroides dorei JRO3 assessed as bacterial growth at 1 uM after 13.5 hrs in presence of pullulan by spectrophotometric analysis relative to untreated control; set-up: scale not given: the % may be the effect or the level left; settings: Phocaeicola dorei
[25] = Inhibition of starch utilization system in Bacteroides dorei JRO3 assessed as increase in doubling time at 0.1 to 10 uM in presence of potato by spectrophotometric analysis; settings: Phocaeicola dorei
Phocaeicola dorei [26] = experiment: Effect on growth of Bacteroides dorei JRO1 assessed as microbial growth at 100 uM measured at 30 mins interval with 15 secs shaking for up to 48 hrs in presence of glucose by spectrophotometric analysis relative to untreated control; format: organism-based; settings: in vivo
[27] = Inhibition of starch utilizing system in Bacteroides dorei JRO2 assessed as microbial growth at 100 uM measured at 30 mins interval with 15 secs shaking for up to 48 hrs in presence of pullulan by spectrophotometric analysis relative to untreated control; set-up: scale not given: the % may be the effect or the level left; settings: Phocaeicola dorei
[28] = Inhibition of starch utilizing system in Bacteroides dorei JRO2 assessed as microbial growth at 100 uM measured at 30 mins interval with 15 secs shaking for up to 48 hrs in presence of potato starch by spectrophotometric analysis relative to untreated control; set-up: scale not given: the % may be the effect or the level left; settings: Phocaeicola dorei

Activity [1]: 6.5%
Activity [2]: 28.2%
Activity [3]: 2.4%
Activity (Phocaeicola dorei [4]): 99.4%
inhibition [5]: Active
Activity (Phocaeicola dorei [6]): 103%
Activity [7]: 11.2%
Activity [8]: 49.9%
Activity (Phocaeicola dorei [9]): 123.3%
Activity (Phocaeicola dorei [10]): 100%
Activity (Phocaeicola dorei [11]): 71.8%
inhibition [12]: Active
inhibition [13]: inactive
Activity [14]: 2.6%
inhibition [15]: inactive
Activity [16]: 4.8%
Activity [17]: 3.9%
Activity [18]: 6.6%
Activity (Phocaeicola dorei [19]): 118.7%
Activity [20]: 59.9%
Activity (Phocaeicola dorei [21]): 105.8%
Activity [22]: 10.4%
inhibition [23]: inactive
Activity [24]: 21.3%
inhibition [25]: Active
Activity (Phocaeicola dorei [26]): 100.7%
Activity [27]: 10.1%
Activity [28]: 3.7%
Compound: C[C@H]1O[C@H](O[C@H]2[C@H](O)[C@@H](O)[C@@H](O[C@H]3[C@H](O)[C@@H](O)C(O)O[C@@H]3CO)O[C@@H]2CO)[C@H](O)[C@@H](O)[C@@H]1N[C@H]1C=C(CO)[C@@H](O)[C@H](O)[C@H]1O (stereo partly drawn) [ACARBOSE]

From ChEMBL document CHEMBL4373676, “Non-lethal growth inhibition by arresting the starch utilization system of clinically relevant human isolates of Bacteroides dorei” (Medchemcomm, 2019)
